# Test results reported in patent US20250387504A1, “ANTIBODY-DRUG CONJUGATES OF ANTINEOPLASTIC COMPOUNDS AND METHODS OF USE THEREOF” (Novartis AG, priority 2022, published 2025).
# B1: Disitamab-P5-L12-P7 (antibody, INN chains, looked up, V domains shown)
# VH: EVQLVQSGAEVKKPGATVKISCKVSGYTFTDYYIHWVQQAPGKGLEWMGRVNPDHGDSYYNQKFKDKATITADKSTDTAYMELSSLRSEDTAVYFCARNYLFDHWGQGTLVTVSS
# VL: DIQMTQSPSSVSASVGDRVTITCKASQDVGTAVAWYQQKPGKAPKLLIYWASIRHTGVPSRFSGSGSGTDFTLTISSLQPEDFATYYCHQFATYTFGGGTKVEIK
# modifications: BCLxLi/TOPOi dual payload P5-L12-P7
# B2: Datopotamab-P5-L12-P7 (antibody, INN chains, looked up, V domains shown)
# VH: QVQLVQSGAEVKKPGASVKVSCKASGYTFTTAGMQWVRQAPGQGLEWMGWINTHSGVPKYAEDFKGRVTISADTSTSTAYLQLSSLKSEDTAVYYCARSGFGSSYWYFDVWGQGTLVTVSS
# VL: DIQMTQSPSSLSASVGDRVTITCKASQDVSTAVAWYQQKPGKAPKLLIYSASYRYTGVPSRFSGSGSGTDFTLTISSLQPEDFAVYYCQQHYITPLTFGQGTKLEIK
# modifications: BCLxLi/TOPOi dual drug-linker P5-L12-P7
# B3: Datopotamab-mono-L3-P8 (antibody, INN chains, looked up, V domains shown)
# VH: B2 VH
# VL: B2 VL
# modifications: TOPOi mono-loaded drug-linker L3-P8
# How the values were obtained:
# [1] = tested on: T-ALL (T-cell Acute Lymphoblastic Leukemia) and different types of solid tumors; details: cited from earlier work
# lymphoid malignancies = details: cited from earlier work
# [2] = tested on: hematological malignancies and solid tumors; details: several hematological malignancies and solid tumors; cited from earlier work
# allogeneic T-cell = details: in vitro; cited from earlier work
# lymphocyte proliferation = details: in vitro; cited from earlier work
# [3] = tested on: animal models of arthritis and lupus; details: mice; cited from earlier work
# [4] = tested on: allogeneic T- and B-cell responses; details: after skin transplantation; cited from earlier work
# RL = assay: CellTiter-Glo proliferation assay, CD48 MCL-1 and BCL-2 ADCs (Example 4); details: Homo sapiens, 120 h, read-out: RL IC50 (nM)
# Description: (§3) The ability of the MCL-1 and BCL-2 antibody drug conjugates to inhibit cell proliferation and survival was assessed using the Promega CellTiter-Glo® proliferation assay.
# (§4) Cell lines were cultured in media that is optimal for their growth at 5% CO2, 37° C. in a tissue culture incubator. Prior to seeding for the proliferation assay, the cells were split at least 2 days before the assay to ensure optimal growth density. On the day of seeding, cell viability and cell density were determined using a cell counter (Vi-Cell XR Cell Viability Analyzer, Beckman Coulter). […] Cells were seeded at a density of 1,000 cells per well in 45 μL of standard growth media. Plates were incubated at 5% CO2, 37° C. overnight in a tissue culture incubator. The next day, free MCL-1 and BCL-2 payloads, targeting MCL-1 and BCL-2 ADCs, and non-targeting isotype ADCs free MCL-1 and BCL-2 payloads, were prepared at 10× in standard growth media. […] Each drug concentration was tested in quadruplets. Plates were incubated at 5% CO2, 37° C. for 5 days in a tissue culture incubator, after which cell viability was assessed through the addition of 25 L μof CellTiter Glo® (Promega, cat #G7573), a reagent which lyses cells and measures total adenosine triphosphate (ATP) content. Plates were incubated at room temperature for 10 minutes to stabilize luminescent signals prior to reading using a luminescence reader (EnVision Multilabel Plate Reader, PerkinElmer). To evaluate the effect of the drug treatments, luminescent counts from wells containing untreated cells (100% viability) were used to normalize treated samples. […] IC50 and Amax values were extrapolated from the resultant curves.
# AMO-1 [5] = assay: as above; details: Homo sapiens, AMO1, 120 h, read-out: AMO-1 IC50 (nM)
# Description: as §3, §4
# MOLP-8 = assay: as above; details: Homo sapiens, MOLP-8, 120 h, read-out: MOLP-8 IC50 (nM)
# Description: as §3, §4
# KMS-21-BM = assay: as above; details: 120 h, read-out: KMS-21-BM IC50 (nM)
# Description: as §3, §4
# Kasumi-6 = assay: CellTiter-Glo proliferation assay, CD74 MCL-1/BCL-xL and BCL-xL ADCs (Example 6); format: cell-based; details: Table 4 CD74 ADC, 5 days; for IC50: 120 h, 0.01-600 nM
# Description: (§1) The CD74 MCL-li and BCL-xLi antibody drug conjugates and the CD74 BCL-xL antibody drug conjugates were tested against two endogenous cancer cell lines. • Kasumi-6: ATCC No. CRL-2775 cultured in RPMI 1640 medium with 2 mM L-glutamine adjusted to contain 1.5 g/L sodium bicarbonate, 4.5 g/L glucose, 10 mMv HEPES, and 1.0 mM sodium pyruvate supplemented with 2 ng/ml human recombinant granulocyte macrophage colony stimulating factor (GM-CSF) and 20% FBS • EOL-1: DSMZ No. ACC-386 cultured in RPMI-1640+10% FBS
# (§2) The next day, free MCL-1 payload (P1), free BCL-xL payload (P5 and P6) and targeting MCL-1 and BCL-xL ADCs and targeting BCL-xL ADCs were prepared at 10X in standard growth media. […] Each drug concentration was tested in quadruplets.
# EOL-1 [6] = assay: as above; format: cell-based; details: Table 4 CD74 ADC, 5 days; for IC50: Homo sapiens, EOL1, 120 h, 0.01-600 nM
# Description: as §1, §2
# KHM-1B = assay: CellTiter-Glo proliferation assay, CD48 MCL-1 and BCL-2 ADCs (Example 4); details: 120 h, read-out: KHM-1B IC50 (nM)
# Description: as §3, §4
# EOL-1 [7] = assay: CellTiter-Glo proliferation assay, CD74 Milatuzumab MCL-1i and BCL2i ADCs (Example 5); format: cell-based; details: EOL-1, 5 days, 0.008-150 nM
# Description: The CD74 Milatuzumab […] […] The next day, free MCL-1 payload (P1) and targeting MCL-1 and BCL-2 ADCs were prepared at 10X in standard growth media. […] Each drug concentration was tested in quadruplets.
# WSU-DLCL2 = assay: CellTiter-Glo proliferation assay, CD48 MCL-1 and BCL-2 ADCs (Example 4); details: Homo sapiens, WSUDLCL2, 120 h, read-out: WSU-DLCL2 IC50 (nM)
# Description: as §3, §4
# NCI-H929 = assay: as above; details: Homo sapiens, NCI-H929, 120 h, read-out: NCI-H929 IC50 (nM)
# Description: as §3, §4
# KE-97 = assay: as above; details: KE-97, 120 h, read-out: Ke97 IC50 (nM)
# Description: as §3, §4
# AMO-1 [8] = assay: CellTiter-Glo proliferation assay, CD48 MCL-1/BCL-xL and BCL-xL ADCs (Example 6); format: cell-based; details: Table 3 CD48 ADC, 5 days
# Description: as §2
# KMS-27 [9] = assay: as above; format: cell-based; details: Table 3 CD48 ADC, 5 days; for IC50: KMS-27, 120 h, 0.01-600 nM
# Description: as §2
# [10] = tested on: cancer cell lines expressing CD48, CD74, EphA2, Her2 and PCAD; assay: CellTiter-Glo proliferation assay, summary over the Example 6 cell lines; format: cell-based; details: representative CD48 and CD74 cancer cell lines; read-out: IC50 values range
# Description: as §1
# The EphA2 antibody drug conjugates were tested against one endogenous cancer cell line. • HCC-38: ATCC No. CRL-2314 cultured in RPMI-1640+10% FBS
# as §2
# KMS-27 [11] = assay: CellTiter-Glo proliferation assay, CD48 MCL-1 and BCL-2 ADCs (Example 4); details: KMS-27, 120 h, read-out: KMS-27 IC50 (nM)
# Description: as §3, §4
# HER2 = HER2 (UniProt P04626); assay: cell-based or functional assay
# TROP2 (human) = TROP2 (human) (UniProt P09758); assay: cell-based or functional assay
# Chain of TROP2 (human) (P09758 27-323): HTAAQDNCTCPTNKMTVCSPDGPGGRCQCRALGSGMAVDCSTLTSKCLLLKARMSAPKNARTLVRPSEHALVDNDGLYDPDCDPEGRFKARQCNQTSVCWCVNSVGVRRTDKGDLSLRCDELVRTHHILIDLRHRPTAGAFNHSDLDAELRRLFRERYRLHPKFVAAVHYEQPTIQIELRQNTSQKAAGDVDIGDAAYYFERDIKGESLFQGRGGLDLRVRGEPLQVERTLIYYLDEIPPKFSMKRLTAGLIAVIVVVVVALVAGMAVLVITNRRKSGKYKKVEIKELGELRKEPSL
IC50 (NCI-H929),Molecule,IC50 (RL),IC50 (AMO-1 [5]),IC50 (MOLP-8),IC50 (KMS-21-BM),IC50 (KHM-1B),IC50 (WSU-DLCL2),IC50 (KE-97),IC50 (KMS-27 [11]),further results
,CN(C)CC#Cc1ccc(OCCCc2sc(N3CCc4cccc(C(=O)Nc5nc6ccccc6s5)c4C3)nc2C(=O)O)c(F)c1 [A-1155463],,,,,,,,,in vivo activity in pre-clinical models [1]: in vivo activity
,Cc1c(-c2ccc(N3CCc4cccc(C(=O)Nc5nc6ccccc6s5)c4C3)nc2C(=O)O)cnn1CC12CC3CC(CC(C3)C1)C2 [A-1331852],,,,,,,,,in vivo activity in pre-clinical models [1]: in vivo activity
,"CC1(C)CCC(c2ccc(Cl)cc2)=C(CN2CCN(c3ccc(C(=O)NS(=O)(=O)c4ccc(N[C@H](CCN5CCOCC5)CSc5ccccc5)c(S(=O)(=O)C(F)(F)F)c4)cc3)CC2)C1 [ABT-263, navitoclax]",,,,,,,,,antitumor activity in clinical studies (lymphoid malignancies): objective antitumor activity; activity in pre-clinical models [2]: shown activity
,CN(C)CC[C@H](CSc1ccccc1)Nc1ccc(S(=O)(=O)NC(=O)c2ccc(N3CCN(Cc4ccccc4-c4ccc(Cl)cc4)CC3)cc2)cc1[N+](=O)[O-] [ABT-737],,,,,,,,,"allogeneic T-cell activation, proliferation, and cytotoxicity (allogeneic T-cell): prevented; inhibition of lymphocyte proliferation (lymphocyte proliferation): potent inhibition; disease severity [3]: significant decrease in disease severity; allogeneic T- and B-cell responses [4]: inhibited"
5.17 nM,COc1ccccc1-c1nccc(COc2ccccc2C[C@@H](Oc2ncnc3sc(-c4ccc(F)cc4)c(-c4ccc(OCCN5CCN(C)CC5)c(Cl)c4C)c23)C(=O)O)n1 [P1],> 250 nM,4.7 nM,6.17 nM,1.66 nM,1.62 nM,41.1 nM,> 250 nM,13.3 nM,"IC50 (Kasumi-6): 36 nM; Kasumi-6 Amax (Span) (Kasumi-6): 111.4; IC50 (EOL-1 [6]): 0.685 nM; EOL-1 Amax (Span) (EOL-1 [6]): 98.4; Amax (Span) (EOL-1 [7]): 88.6; IC50 (EOL-1 [7]; Homo sapiens, EOL1, 120 h): 0.338 nM; IC50 (AMO-1 [8]; Homo sapiens, AMO1, 120 h, 0.01-600 nM): 3.8 nM; AMO-1 Amax (Span) (AMO-1 [8]): 95.8; IC50 (KMS-27 [9]): 5.23 nM; KMS-27 Amax (Span) (KMS-27 [9]): 96.7; IC50 [10]: 0.685 to 36 nM"
> 250 nM,"Cc1c(N(C(=O)c2cc(-c3cc(Cl)ccc3C(=O)N3Cc4ccccc4C[C@H]3CCCN(C)C)n(C)c2C)c2ccc(O)cc2)cc(C#N)n1C [P2, 5-[5-chloro-2-[(3R)-3-[3-(dimethylamino)propyl]-3,4-dihydro-1H-isoquinoline-2-carbonyl]phenyl]-N-(5-cyano-1,2-dimethyl-pyrrol-3-yl)-N-(4-hydroxyphenyl)-1,2-dimethyl-pyrrole-3-carboxamide]",6.26 nM,> 250 nM,> 250 nM,> 100 nM,> 10 nM,3.77 nM,> 250 nM,0.316 nM,
> 250 nM,Cc1c(C(=O)N(c2ccc(O)cc2)c2cnn(C(F)F)c2)cc(-c2cc3c(cc2C(=O)N2Cc4ccccc4C[C@H]2C)CN(C(=O)Cc2ccc(OCCN4CCOCC4)cc2)CC3)n1C [P3],11.8 nM,> 250 nM,> 250 nM,> 100 nM,> 10 nM,5.41 nM,> 250 nM,3.91 nM,
> 250 nM,"Cc1c(N(C(=O)c2cc(-c3cc4c(cc3C(=O)N3Cc5ccccc5C[C@H]3C)CN(C(=O)Cc3ccc(OCCN5CCOCC5)cc3)CC4)n(C)c2C)c2ccc(O)cc2)cc(C#N)n1C [P4, N-(5-cyano-1,2-dimethyl-1H-pyrrol-3-yl)-N-(4-hydroxyphenyl)-1,2-dimethyl-5-{7-[(3R)-3-methyl-1,2,3,4-tetrahydroisoquinoline-2-carbonyl]-2-(2-{4-[2-(morpholin-4-yl)ethoxy]phenyl}acetyl)-1,2,3,4-tetrahydroisoquinolin-6-yl}-1H-pyrrole-3-carboxamide]",1.26 nM,> 250 nM,> 250 nM,> 100 nM,> 10 nM,4.17 nM,> 250 nM,0.999 nM,
,"Cc1c(Nc2nc3ccccc3s2)nnc2c1CCCN2c1ccc(-c2cnn(CC34CC5(C)CC(C)(C3)CC(OCCNCCCO)(C5)C4)c2C)c(C(=O)O)n1 [P5, 6-[3-(1,3-benzothiazol-2-ylamino)-4-methyl-6,7-dihydro-5H-pyrido[2,3-c]pyridazin-8-yl]-3-[1-[[3-[2-(3-hydroxypropylamino)ethoxy]-5,7-dimethyl-1-adamantyl]methyl]-5-methyl-pyrazol-4-yl]pyridine-2-carboxylic acid]",,,,,,,,,IC50 (Kasumi-6): 11.9 nM; Kasumi-6 Amax (Span) (Kasumi-6): 84.5; IC50 (EOL-1 [6]): 0.488 nM; EOL-1 Amax (Span) (EOL-1 [6]): 94.9; IC50 (KMS-27 [9]): < 5 nM
,"Cc1c(Nc2nc3ccccc3s2)nnc2c1CCCN2c1nc(C(=O)O)c(CCCOc2ccc(C#CCN(C)C)cc2F)s1 [P6, 2-[3-(1,3-Benzothiazol-2-ylamino)-4-methyl-6,7-dihydro-SH-pyrido[2,3-c]pyridazin-8-yl]-5-[3-[4-[3-(dimethylamino)prop-1-ynyl]-2-fluoro-phenoxy]propyl]thiazole-4-carboxylic acid]",,,,,,,,,IC50 (Kasumi-6): < 10 nM; IC50 (EOL-1 [6]): < 10 nM; IC50 (KMS-27 [9]): 7.89 nM; KMS-27 Amax (Span) (KMS-27 [9]): 93.7
,B1,,,,,,,,,"IC50 (nM), inhibition of cell proliferation and survival (CellTiter-Glo), UACC-812 cells (HER2): 0.191 nM"
,B2,,,,,,,,,"IC50 (nM), NCI-H441 (TROP2 (human)): 0.692 nM"
,B3,,,,,,,,,"IC50 (nM), NCI-H441 (TROP2 (human)): < 5 nM"
